Assay results taken from patent publication US20260217701A1, “SELECTIVE BET INHIBITORS AND USES THEREOF” (Tay Therapeutics Limited, priority 2022, published 2026).
“And” between values parts separate entries of the source, which are not always exact repeats. Equal values may be shown once.

How the values were obtained:
[1] = UUO study: body weight; format: in vivo; conditions: UUO rats; for Body Weight: 10 mg/kg QD, 10 mg/kg; for Mean + SD of Body Weight: group 3, group mean
[2] = test system: idiopathic pulmonary fibrosis (bleomycin); test: Bleomycin IPF model: oxygen saturation (pulse oximetry); format: in vivo, C57BI/6J mice; conditions: for Oxygen saturation levels: Bleo mice
Protocol: Male C57BI/6J mice, aged 12 weeks with an approximate weight of 25-30 g were obtained from Jackson Laboratories (Bar Harbor, ME). Animals were acclimated for two weeks prior to study initiation, and were randomized into the experimental groups outlined in Table 32.
Intratracheal (IT) administration of Bleo or PBS control was conducted at the start of the study (Day 0). […] Animals were weighed on Day 0, and indexed boluses of PBS control (Group 1) or Bleo (Groups 2-6) were delivered by IT administration.
Following administration of Bleo, animals (n=10/group) were included in the study if they met the following guidelines on Day 7: (1) a predictable 5% loss in body weight, and (2) the presence of fibrotic pulmonary lesions, detected by micro-CT imaging. 10 animals from Group 1 additionally proceeded as controls. Animals that continued in the study on Day 7 received an oral gavage (OG) administration of PBS, Compound A (1 mg/kg, 3 mg/kg, 10 mg/kg), or Pirfenidone (300 mg/kg), as outlined in Table 31 in 25 μL boluses every other day (QOD), starting on Day 7. Compound A was formulated in 5% (v/v) DMSO/15% (v/v) PEG 400/80% (v/v) E-TPGS in purified water.
Body weights were obtained at Day 0 at the start of the study, and again at Day 7 to determine if an animal continued in the study. Body weight was measured daily from Day 7 until Day 21, and oxygen saturation was measured by a pulse oximetry (MouseOx) system QOD from Day 7 until study completion on Day 21, and results were plotted and analyzed by Kaplan-Meier plots.

[3] = test system: lupus; test: SLE (lupus) model: kidney histology lesion scores; format: in vivo, MRL/MpJ-Faslpr mice; conditions: for Total Glomerular Lesion (mean score) / Total Glomerular Lesion (table title: Mean Total Kidney Lesion Scores) / Total Tubular and Interstitial Lesion (mean score) / Mean total glomerular lesion score / Mean total kidney lesion score / Mean total tubular and interstitial lesion score: Week 19
Protocol: Female MRL/MpJ-Faslpr mice (The Jackson Laboratory) were used to assess the efficacy of Compound A in treating lupus. Starting when animals were 10 weeks of age, protein concentration in urine was measured using urine dipsticks.
At the start of the study, each group in the study had two animals that were 9 weeks old, and all others were 10 weeks old. Dosing of all animals with the test compounds began when the older animals were 11 weeks old. […] […] Dosing was at a consistent time each dosing day throughout the study.
Compound A may be formulated as illustrated in Experimental Method A (see Table 2E.). […] A stock solution of Compound A in DMSO (stock solution concentration of Compound A of 40 mg/mL) was prepared and aliquots for weekly preparations were frozen at −20° C. On each preparation day, a stock solution aliquot was thawed and diluted with other vehicle components to the desired concentration. Formulated Compound A and vehicle were at room temperature for dosing.
The study began when the older animals were 11 weeks old, and concluded when the older animals were 19 weeks old. Body weight was recorded once a week, with the exception of two weight measurements taken the first week of the study (when the older animals were 11 weeks old). Proteinuria was measured in the urine of animals with urine dipsticks once a week, starting when the older animals were 10 weeks old. […] Blood samples were taken retro-orbitally at the start of the study to establish a baseline (15 animals, 3 per group), and when the older animals were 16 weeks (all animals) and when animals were 19 weeks (all animals) at the conclusion of the study. Blood urea nitrogen (BUN) was measured in all animals at study termination in blood samples. After blood collection, animals were euthanized, perfused with PBS, and the left kidneys were collected and weighed and fixed in 10% buffered formalin. Left kidneys were then processed to a formalin-fixed, paraffin-embedded (FFPE) block, and histology was analyzed in Periodic Acid-Schiff-stained sections (1 section per slide), using the criteria described in Alperovich et al., Lupus, 16:18-24 (2007). Right kidneys were weighed and snap-frozen at −80° C. Spleens were also collected and weighed. SLE in animals treated with a BET inhibitor and vehicle.

SMILES: Cn1cc(-c2ccccc2)c(-c2cn(C)c(=O)c3[nH]c(-c4cnn(C(F)(F)F)c4)cc23)cc1=O [Compound A, 6-methyl-4-(1-methyl-2-oxo-5-phenyl-1,2-dihydropyridin-4-yl)-2-(1-(trifluoromethyl)-1H-pyrazol-4-yl)-1,6-dihydro-7H-pyrrolo[2,3-c]pyridin-7-one]
- Body Weight ([1]; individual animals 1-8, Day 0): 304 g (2×) and 308 g and 291 g and 306 g and 307 g
- Body Weight ([1]; individual animals 1-8, Day 1): 290 g and 296 g and 304 g and 281 g and 279 g and 298 g
- Body Weight ([1]; individual animals 1-8, Day 2): 283 g and 294 g and 297 g and 281 g and 275 g and 290 g
- Body Weight ([1]; individual animals 1-8, Day 3): 286 g and 292 g and 298 g and 280 g and 276 g and 288 g
- Body Weight ([1]; individual animals 1-8, Day 4): 285 g and 288 g and 301 g and 277 g and 275 g and 294 g
- Body Weight ([1]; individual animals 1-8, Day 5): 283 g and 290 g and 300 g and 278 g and 268 g and 285 g
- Body Weight ([1]; individual animals 1-8, Day 6): 283 g and 290 g (2×) and 297 g and 281 g and 266 g and 275 g
- Body Weight ([1]; individual animals 1-8, Day 7): 290 g and 285 g and 303 g and 280 g and 260 g and 299 g and 274 g
- Body Weight ([1]; individual animals 1-8, Day 8): 295 g and 284 g and 304 g and 279 g and 262 g and 303 g and 275 g
- Body Weight ([1]; individual animals 1-8, Day 9): 305 g and 284 g (2×) and 310 g and 279 g and 304 g and 275 g
- Body Weight ([1]; individual animals 1-8, Day 10): 300 g and 284 g and 311 g and 277 g and 270 g and 304 g
- Body Weight ([1]; individual animals 1-8, Day 11): 298 g and 297 g and 311 g and 278 g and 271 g and 315 g
- Body Weight ([1]; individual animals 1-8, Day 12): 295 g and 291 g and 319 g and 283 g and 271 g and 315 g
- Body Weight ([1]; individual animals 1-8, Day 13): 294 g and 293 g and 318 g and 286 g and 270 g and 320 g
- Body Weight ([1]; individual animals 1-8, Day 14): 298 g and 296 g and 322 g and 291 g and 281 g and 331 g
- Body Weight ([1]; individual animals 1-8, Day −1): 284 g and 304 g and 299 g and 289 g and 297 g and 301 g
- Mean + SD of Body Weight ([1]; Day 0): 302 ± 6 g
- Mean + SD of Body Weight ([1]; Day 1): 288 ± 11 g
- Mean + SD of Body Weight ([1]; Day 2): 285 ± 8 g
- Mean + SD of Body Weight ([1]; Day 3): 284 ± 9 g
- Mean + SD of Body Weight ([1]; Day 4): 283 ± 11 g
- Mean + SD of Body Weight ([1]; Day 5): 281 ± 11 g
- Mean + SD of Body Weight ([1]; Day 6): 282 ± 10 g
- Mean + SD of Body Weight ([1]; Day 7): 284 ± 14 g
- Mean + SD of Body Weight ([1]; Day 8): 285 ± 15 g
- Mean + SD of Body Weight ([1]; Day 9): 291 ± 13 g
- Mean + SD of Body Weight ([1]; Day 10): 289 ± 14 g
- Mean + SD of Body Weight ([1]; Day 11): 292 ± 17 g
- Mean + SD of Body Weight ([1]; Day 12): 294 ± 17 g
- Mean + SD of Body Weight ([1]; Day 13): 296 ± 17 g
- Mean + SD of Body Weight ([1]; Day 14): 300 ± 18 g
- Mean + SD of Body Weight ([1]; Day −1): 294 ± 7 g
- Body weight course ([1]; 10 mg/kg daily, 14-day study): slight weight loss over the course of the 14-day study before regaining their original weight
- Recovery in oxygen saturation relative to IPF control group (Bleo+Saline) ([2]; 3 mg/kg and 10 mg/kg): significant recovery in oxygen saturation levels
- Mean Oxygen Saturation ([2]; Bleo + Compound A (1 mg/kg) OG QOD from D7, Day 7): 80.6
- Mean Oxygen Saturation ([2]; Bleo + Compound A (1 mg/kg) OG QOD from D7, Day 9): 84.25
- Mean Oxygen Saturation ([2]; Bleo + Compound A (1 mg/kg) OG QOD from D7, Day 11): 87.17
- Mean Oxygen Saturation ([2]; Bleo + Compound A (1 mg/kg) OG QOD from D7, Day 13): 88.03
- Mean Oxygen Saturation ([2]; Bleo + Compound A (1 mg/kg) OG QOD from D7, Day 15): 88.58
- Mean Oxygen Saturation ([2]; Bleo + Compound A (1 mg/kg) OG QOD from D7, Day 17): 88.48
- Mean Oxygen Saturation ([2]; Bleo + Compound A (1 mg/kg) OG QOD from D7, Day 19): 89.87
- Mean Oxygen Saturation ([2]; Bleo + Compound A (1 mg/kg) OG QOD from D7, Day 21): 87.67
- Mean Oxygen Saturation ([2]; Bleo + Compound A (3 mg/kg) OG QOD from D7, Day 7): 82.08
- Mean Oxygen Saturation ([2]; Bleo + Compound A (3 mg/kg) OG QOD from D7, Day 9): 83.77
- Mean Oxygen Saturation ([2]; Bleo + Compound A (3 mg/kg) OG QOD from D7, Day 11): 85.05
- Mean Oxygen Saturation ([2]; Bleo + Compound A (3 mg/kg) OG QOD from D7, Day 13): 85.67
- Mean Oxygen Saturation ([2]; Bleo + Compound A (3 mg/kg) OG QOD from D7, Day 15): 85.97
- Mean Oxygen Saturation ([2]; Bleo + Compound A (3 mg/kg) OG QOD from D7, Day 17): 89.18
- Mean Oxygen Saturation ([2]; Bleo + Compound A (3 mg/kg) OG QOD from D7, Day 19): 89.6
- Mean Oxygen Saturation ([2]; Bleo + Compound A (3 mg/kg) OG QOD from D7, Day 21): 89.88
- Mean Oxygen Saturation ([2]; Bleo + Compound A (10 mg/kg) OG QOD from D7, Day 7): 82.75
- Mean Oxygen Saturation ([2]; Bleo + Compound A (10 mg/kg) OG QOD from D7, Day 9): 84.07
- Mean Oxygen Saturation ([2]; Bleo + Compound A (10 mg/kg) OG QOD from D7, Day 11): 86.87
- Mean Oxygen Saturation ([2]; Bleo + Compound A (10 mg/kg) OG QOD from D7, Day 13): 87.5
- Mean Oxygen Saturation ([2]; Bleo + Compound A (10 mg/kg) OG QOD from D7, Day 15): 88.87
- Mean Oxygen Saturation ([2]; Bleo + Compound A (10 mg/kg) OG QOD from D7, Day 17): 89.23
- Mean Oxygen Saturation ([2]; Bleo + Compound A (10 mg/kg) OG QOD from D7, Day 19): 92.22
- Mean Oxygen Saturation ([2]; Bleo + Compound A (10 mg/kg) OG QOD from D7, Day 21): 93.58
- Oxygen saturation levels ([2]; 3 mg/kg, Day 21): about 90%
- Oxygen saturation levels ([2]; 10 mg/kg, Day 21): about 93.6%
- Improvement of oxygen saturation versus pirfenidone ([2]; IPF model): superior to pirfenidone in improving oxygen saturation
- Total Glomerular Lesion (mean score) ([3]; Compound A 1 mg/kg PO QD): 3.9
- Total Glomerular Lesion (table title: Mean Total Kidney Lesion Scores) ([3]; Compound A 1 mg/kg PO QD): 5.1
- Total Tubular and Interstitial Lesion (mean score) ([3]; Compound A 1 mg/kg PO QD): 1.2
- Total Glomerular Lesion (mean score) ([3]; Compound A 3 mg/kg PO QD): 2.7
- Total Glomerular Lesion (table title: Mean Total Kidney Lesion Scores) ([3]; Compound A 3 mg/kg PO QD): 3.8
- Total Tubular and Interstitial Lesion (mean score) ([3]; Compound A 3 mg/kg PO QD): 1.1
- Total Glomerular Lesion (mean score) ([3]; Compound A 10 mg/kg PO QD): 1.1
- Total Glomerular Lesion (table title: Mean Total Kidney Lesion Scores) ([3]; Compound A 10 mg/kg PO QD): 1.6
- Total Tubular and Interstitial Lesion (mean score) ([3]; Compound A 10 mg/kg PO QD): 0.5
- Mean total glomerular lesion score ([3]; 1 mg/kg): about 3.9
- Mean total kidney lesion score ([3]; 1 mg/kg): about 5.1
- Mean total tubular and interstitial lesion score ([3]; 1 mg/kg): about 1.2
- Mean total glomerular lesion score ([3]; 3 mg/kg): about 2.7
- Mean total kidney lesion score ([3]; 3 mg/kg): about 3.8
- Mean total tubular and interstitial lesion score ([3]; 3 mg/kg): about 1.1
- Mean total glomerular lesion score ([3]; 10 mg/kg): about 1.1
- Mean total kidney lesion score ([3]; 10 mg/kg): about 1.6
- Mean total tubular and interstitial lesion score ([3]; 10 mg/kg): about 0.5
- Kidney histology images (FIGS. 30H-30L), disease suppression ([3]; increasing dosage): dose dependent improvement in disease suppression
